# Data as given in US20190070170A1, “METHOD OF S[…]-1” (Macau University of Science and Technology, priority 2017, published 2019).
# Assays:
# p65 = test: Nuclear translocation of p65 in LPS-stimulated rat peritoneal macrophages (immunofluorescence, western blotting); assay type: cell-based; conditions: 640 μM SIN 1 h, LPS 30 min
# Method: Whole-cell and nuclear proteins were obtained using RIPA lysis buffer (CST, Boston, Mass., USA) and Nuclear and Cytoplasmic Extraction Reagents kit from Thermo Scientific (Asheville, N.C., USA), respectively. For immunoblotting, proteins from whole-cell, cytoplasm, nuclear, and microsomal fractions were separated on SDS-PAGE, then transferred onto a nitrocellulose membrane from GE Healthcare Life Sciences (Buckinghamshire, UK), and incubated with 5% skimmed milk at room temperature for 1 h. Membranes were incubated with the primary antibodies including cPLA2, p-cPLA2, COX-1 and p65 (all dilutions 1:1000), and COX-2 (dilution 1:500) from Cell Signaling Technology (Boston, Mass., USA); and mPGES-1 (dilution 1:200) from Cayman Chemical (Ann Arbor, Mich., USA); and β-actin (dilution 1:1000) from Santa Cruz Biotechnology (Santa Cruz, Calif., USA); and TBP (dilution 1:200) was from Abcam (Cambridge, UK) at 4° C. overnight and the band was visualized by incubating the anti-rabbit or anti-mouse secondary antibodies (dilution 1:10,000) from Li-COR (Lincoln, Nebr., USA) at room temperature for 1 h. The levels of protein expression were measured using Odyssey v3.0 software from Li-COR (Lincoln, Nebr., USA).
# RAW 264.7 cells were seeded on glass coverslip at a density 2.0×10^5 cells/well in 6-well plates and incubated for 24 h. […]
# CREB = CREB pathway (p-CREB) in LPS-stimulated rat peritoneal macrophages (western blotting); assay type: cell-based; conditions: SIN 1 h, LPS 1 μg/ml 15 min or 1 h
# Method: Sprague-Dawley (SD) rats from the University of Hong Kong were housed in cages with free access to food and water. Peritoneal macrophages of SD rats were isolated as described in Liu J. et al., Pharmacological research 2016, 111:303-315. Briefly, untreated rats were sacrificed and after laparotomy, about 50 ml cold sterile Hank's balanced salt solution (HBSS) was used to lavage the peritoneal cavity at twice, and then the peritoneal lavage fluid was collected and centrifuged at 1500 rpm for 10 min. The cell pellets was suspended at a density 1.5×10^6 cells/ml in pre-hearted DMEM medium with 10% heat-inactivated FBS, penicillin G (100 units/ml), streptomycin ([…]), and L-glutamine (2 mM), followed by seeding in 6-well plates at a density of 4.5×10^6 cells and incubation for 2 h. Then the medium were discarded to remove the non-adherent cells. The adherent cells were further washed for two times with pre-heated DMEM medium to remove floating cells. Next, cells were pre-treated with various concentration of SIN for 1 h, followed by stimulation with LPS (1 μg/ml).
# (§1) Whole-cell and nuclear proteins were obtained using RIPA lysis buffer (CST, Boston, Mass., USA) and Nuclear and Cytoplasmic Extraction Reagents kit from Thermo Scientific (Asheville, N.C., USA), respectively. […] The levels of protein expression were measured using Odyssey v3.0 software from Li-COR (Lincoln, Nebr., USA).
# COX-1 = COX-1 protein in microsomes of inflamed paw of carrageenan-induced rats (western blotting); assay type: in vivo, SD rats; conditions: SIN or DEX pretreatment i.p.
# Method: The model of carrageenan-induced paw edema was performed with SD rats (150-200 g). The carrageenan-induced paw edema was performed in SD rats (150-200 g) by subcutaneously injection λ-carrageenan as described in Liu J. et al., Pharmacological research 2016, 111 and Luo P. et al., J. Pharmacol. Exp. Ther. 2010. Briefly, rats were fasted for 12 h before experiment and intraperitoneal injection was performed with three different doses (25, 50 and 100 mg/kg) of SIN, or DEX (reference drug, 2 mg/kg) or 0.9% saline (Vehicle and Normal group rats), at 2 h prior to the induction of paw edema. […] Paw volumes (ml) of right hind foot of each rat were measured using a plethysmometer (type 7150; UGO Basile, Comerio, Italy) at 0 h (before carrageenan injection) and then again at 1, 2, 3 and 4 h after the injection of carrageenan or saline. The percentage of paw edema of the right hind paws of all groups were calculated at different time points by the following equation: […]
# as §1
smiles,measurement,setting,value
"COC1=C[C@@H]2[C@@H]3Cc4ccc(OC)c(O)c4[C@]2(CCN3C)CC1=O [SIN, sinomenine]",nuclear translocation of p65,p65,does not produce observable inhibitory effects
same,influence on CREB pathway,CREB,No observable effects
same,COX-1 level in inflamed paw,COX-1,did not produce observable effects
